From patent US20030194445A1, “Compositions and methods of use of peptides in combination with biocides and/or germicides” (priority 2001, published 2003) come the findings set out here.

≈ marks a conversion by molar mass, not a printed value. Structures can show the parent of a compound that is named as a salt. Where two headings read alike, the source gives them in different places. *: point of attachment. Octanoyl = CCCCCCCC(=O)*

One experiment deals with K. pneumoniae. Description: MIC of biocide actives and formulations, microtiter growth assay.
The subject of a further experiment is P. aeruginosa. The description is as above.
The test system of experiment [1] is microbes such as Salmonella typhimurium and Clostridium botulinum. In kind it is cell-based. The following applies: food preservative use.
The test system of a further experiment is E. coli. The experiment can be described thus: Peptide-containing textile fiber, MIC. In kind it is cell-based, Escherichia coli. The following applies: E. coli in LB media. From the text:
Peptide compositions comprising peptides of the present invention and at least one biocide or germicide may be applied by coating or spinning effective amounts of peptide onto or into the desired polymer. The peptides may be prepared in an aqueous solution to use as a coating solution or combined with a polymer. […] A peptide and polymer solution or mixture may be made and undergo casting or formation to the desired shaped article, fiber or film. The shaped article, fiber or film may then be quenched in water or methanol, allowed to air dry or dry under an appropriate atmosphere to prevent oxidative reactions.
The resulting solution may be placed into a microscale spinning apparatus and fiber is formed while wet with methanol. The antimicrobial activity of the peptides may be tested in tubes containing LB media innoculated with the peptide-containing fiber and E. coli growing at log phase (1×10^6 to 1×10^7 cells/ml). Aliquots can be taken from the culture tube at periodic intervals and absorbance readings at 600 nm (uv/vis) can be measured in a microcuvette.

In experiment [2] the test system is C. albicans ATCC 10231.
The test system of experiment [3] is K. pneumoniae ATCC 27736.
Experiment [4] has as its system S. aureus ATCC 33591 (MRSA).
Experiment [5] relates to S. cerevisiae ATCC 9763.
For experiment [6], the system named is E. coli ATCC 25922.
The test system of experiment [7] is P. aeruginosa ATCC 10145.
Experiment [8] deals with E. coli ATCC 25922. The experiment can be described thus: microbe, parasite or virus in culture. The conditions noted are these: Escherichia coli, ATCC25922, read-out: Triclosan MIC.
A further experiment deals with microorganisms. Description: Triclosan plus sub-toxic levels of peptide on microbial growth. In kind it is cell-based. Here is the method: Effect of combinations of triclosan and sub-toxic levels of peptide on microbial growth is assessed. […] Thus, the potential use rate of triclosan as an antimicrobial is shown to be reduced.
Experiment [9] deals with P. aeruginosa ATCC 10145. The experiment can be described thus: microbe, parasite or virus in culture. The following applies: Pseudomonas aeruginosa, ATCC10145, read-out: Triclosan MIC.
The test system of experiment [10] is S. cerevisiae ATCC 9763. Description: microbe, parasite or virus in culture. The following applies: Saccharomyces cerevisiae, ATCC9763, read-out: Triclosan MIC.
In experiment [11] the test system is K. pneumoniae ATCC 27736. Description: microbe, parasite or virus in culture. The following applies: Klebsiella pneumoniae, ATCC27736, read-out: Triclosan MIC.
Experiment [12] has as its system S. aureus ATCC 33591 (MRSA). The experiment can be described thus: microbe, parasite or virus in culture. The conditions noted are these: Staphylococcus aureus, read-out: Triclosan MIC.
The test system of experiment [13] is C. albicans ATCC 10231. Description: microbe, parasite or virus in culture. The following applies: Candida albicans, ATCC10231, read-out: Triclosan MIC.
Experiment [14] deals with all organisms tested except P. aeruginosa. Description: Triclosan plus sub-biocidal peptide, summary over organisms. In kind it is cell-based. An excerpt: Thus, the potential use rate of triclosan as an antimicrobial is reduced.
Setting [15] is: K. pneumoniae, growth inhibited by >90%.
Where [16] appears, read: P. aeruginosa, growth inhibited by >90%.
[17] abbreviates: triclosan MIC with octanoyl-R-NH-octyl at 4 ppm.
Setting [18] is: triclosan MIC with octanoyl-RR-NH-octyl at 0.5 ppm.

Take `O=[N+]([O-])C(Br)(CO)CO` [Myacide, 2-bromo-2-nitropropane-1,3-diol]: the results for the MIC in the experiment on K. pneumoniae (Klebsiella pneumoniae) and in the experiment on P. aeruginosa (Pseudomonas aeruginosa) were 10 µg/mL and 1.3 µg/mL, respectively.

For `N#CSCSC#N` [MBT, methylene bis(thiocyanate)], the MIC with K. pneumoniae (setting [15]) and in the experiment on P. aeruginosa (setting [16]) was 0.6 µg/mL throughout.

Regarding Octanoyl-Arg-Cys-NH-octyl, the MIC result in experiment [1] is “≦15 μg/ml”.

On to Nonanoyl-Arg-NH-nonyl, for which the MIC entry in experiment [1] is given as “≦4 μg/ml”.

As for “Octanoyl-Arg-Phe-Phe-Arg-NH-octyl (Octanoyl-RFFR-{NH‑octyl})”, the MIC entry in the experiment with E. coli is given as “≦4 μg/ml”.

As to Octanoyl-Arg-Ala-NH-octyl, in experiment [1], the MIC entry is “≦15 μg/ml”.

Consider Decanoyl-Arg-NH-decyl, for which the MIC entry in experiment [1] is reported as “≦8 μg/ml”; in the experiment on E. coli, “≦15 μg/ml”.

As to “Acetyl-Arg-Trp-Arg-Trp-NH2 (Ac-RWRW-NH2)”, the MIC entry (in experiment [1]; against E. coli) was “≦31 μg/ml” each time.

With `CCCCCCCCCCCCNC(=N)N` [DGH, dodecylguanidine hydrochloride], the values for the MIC in the experiment on K. pneumoniae (Klebsiella pneumoniae) and in the experiment with P. aeruginosa (Pseudomonas aeruginosa) were 2.5 µg/mL and 10 µg/mL, respectively.

With `CCCCCCCCNC(=O)[C@H](CCCNC(=N)N)NC(=O)[C@H](CCCNC(=N)N)NC(=O)CCCCCCC` [octanoyl-RR-NH-octyl, octanoyl-RR—NH-octyl], the “Peptide MIC” value with C. albicans ATCC 10231 [2] (ATCC 10231, 19 h) came out at 8 µg/mL; in the experiment with K. pneumoniae ATCC 27736 [3] (ATCC 27736, 19 h), 4 µg/mL; in experiment [4] (ATCC 33591, 19 h), 2 µg/mL.

`CCCCCCCCNC(=O)[C@H](CCCNC(=N)N)NC(=O)CCCCCCC` [octanoyl-R-NH-octyl, octanoyl-R—NH-octyl]: the “Peptide MIC” value is 8 µg/mL in the experiment on S. cerevisiae ATCC 9763 [5] (ATCC 9763, 19 h); 8 µg/mL in the experiment on E. coli ATCC 25922 [6] (ATCC 25922, 19 h); 8 µg/mL in the experiment with P. aeruginosa ATCC 10145 [7] (ATCC 10145, 19 h).

Take Octanoyl-Arg-Arg-Arg-NH-octyl: the MIC result against E. coli is given as “≦8 μg/ml”.

Octanoyl-Arg-Trp-Phe-NH2: in the experiment on E. coli, the MIC entry is given as “≦15 μg/ml”.

In the case of `O=CCCCC=O` [Aqucar, glutaraldehyde], the MIC was 250 µg/mL in the experiment with K. pneumoniae (Klebsiella pneumoniae) and 500 µg/mL with P. aeruginosa (Pseudomonas aeruginosa).

With “n-alkyl (C12-40%, C14-50%, C16-10%) dimethylbenzylammonium chloride [Maquat]”, the MIC in the experiment on K. pneumoniae (setting [15]) amounted to 0.6 µg/mL; in the experiment on P. aeruginosa (setting [16]), 7.8 µg/mL.

For `Oc1cc(Cl)ccc1Oc1ccc(Cl)cc1Cl` [Triclosan, 2,4,4′-trichloro-2′-hydroxydiphenylether], the MIC in the experiment with E. coli ATCC 25922 [8] is 2 ng/mL (≈ 0.00691 µM); with P. aeruginosa ATCC 10145 [9], above 250 µg/mL; in the experiment on S. cerevisiae ATCC 9763 [10] it was 4 µg/mL (≈ 13.8 µM); in the experiment on K. pneumoniae ATCC 27736 [11] it was 0.061 µg/mL (≈ 0.211 µM); in experiment [12], 0.015 µg/mL (≈ 0.0518 µM); in the experiment on C. albicans ATCC 10231 [13], 8 µg/mL (≈ 27.6 µM). The “inhibitory effect of triclosan with a peptide of the invention in sub-toxic amounts” value in the experiment with microorganisms is “substantially increase”. The “Triclosan plus constant [peptide]” value with S. cerevisiae ATCC 9763 [5] (triclosan MIC with octanoyl-R-NH-octyl at 2 ppm) is reported as 2 (2 ppm) μg/ml; in the experiment on E. coli ATCC 25922 [6] (setting [17]), <0.00003 (4 ppm) μg/ml; in the experiment on C. albicans ATCC 10231 [2] (triclosan MIC with octanoyl-RR-NH-octyl at 2 ppm) it was 4 (2 ppm) μg/ml; with C. albicans ATCC 10231 [2] (triclosan MIC with octanoyl-RR-NH-octyl at 4 ppm), 2 (4 ppm) μg/ml; in the experiment on K. pneumoniae ATCC 27736 [3] (setting [18]) it was 0.031 (0.5 ppm) μg/ml; with K. pneumoniae ATCC 27736 [3] (triclosan MIC with octanoyl-RR-NH-octyl at 1 ppm), 0.00003 (1 ppm) μg/ml. In addition, the “Triclosan plus constant [peptide]” value in the experiment on P. aeruginosa ATCC 10145 [7] (setting [17]) is >250 (4 ppm) μg/ml; in [4] (setting [18]), 0.002 (0.5 ppm) μg/ml. The “inhibitory effect of triclosan on addition of sub-biocidal amounts of peptide” value in experiment [14] is recorded as “substantially increased”.

For the compound `N#CC(Br)(Br)C(N)=O` [compound 7287, 2,2-dibromo-3-nitrilo propionamide], the MIC with K. pneumoniae (setting [15]) and in the experiment with P. aeruginosa (setting [16]) was 40.0 µg/mL each time.

Take Nonanoyl-Arg-Arg-NH-nonyl: in the experiment on E. coli, the MIC result was “≦2 μg/ml”.

Octanoyl-Arg-Trp-NH2: the MIC result (in [1]; against E. coli) was “≦15 μg/ml” throughout.

In the case of Octanoyl-Lys-Arg-NH-octyl, the MIC entry in experiment [1] was “≦4 μg/ml”.
